Entries after “also recorded” stand apart in the source; their conditions may differ.
Columns and labels:
[1] = Pharmacokinetic study of (+)-JQ1 in mice (plasma, LCMS-MS); assay type: in vivo
Description: FIG. 29A includes a table of pharmacokinetic data and measured parameters. […] Data represent mean measurements and error bars indicate the standard deviation, both from triplicate independent measurements. Plasma concentrations of drug above the biologically active concentration observed in vitro (100 nM; horizontal red line) are observed for more than 10 hours by extrapolation.

[2] = system: MLL-AF9/Nras^G12D leukemia; assay: MLL-AF9/NrasG12D leukemia transplant model, JQ1 treatment; assay type: in vivo, mice
Source text: FIG. 12A includes bioluminescent images of mice administered doxycycline upon disease onset, i.e., six days post-transplant. Day zero is the first day of doxycycline administration. FIG. 12B includes a graph showing the quantification of bioluminescent imaging responses following doxycycline administration. Shown are mean values of four replicate mice. FIG. 12C includes a graph showing Kaplan-Meier survival curves of recipient mice transplanted with the indicated TRMPV-shRNA leukemia cell line. The period of doxycycline administration is indicated by an arrow. Statistical significance relative to shRNAs that target Renilla luciferase (shRen) was calculated using a Log-rank test; *p=0.0001, **p<0.0001. FIG. 12D includes flow cytometry of donor-derived (CD45.2-positive) bone marrow cells in terminally diseased doxycycline-administered mice. Gate shown includes dsRed-positive/shRNA-positive cells. FIG. 12E includes a graph showing the quantification of dsRed-positive/shRNA-positive percentage in CD45.2-positive terminal leukemia burden. […] Shown are mean values of 6 DMSO- and 7 JQ1-treated mice. p-values were calculated using a two-tailed Student's paired t-test. […] Statistical significance was calculated using a Log-rank test. […] Shown are mean values of 6 DMSO- and 7 JQ1-treated mice. p-values were calculated using a two-tailed Student's paired t-test. […]
Mice were transplanted with 1 million leukemia cells, followed by treatment initiation on day 4 (when disease becomes visible by imaging). FIG. 13B includes a graph showing quantitation of the bioluminescent images. […] Statistical significance was calculated using a Log-rank test. […] Statistical significance was calculated using a Log-rank test.
For whole body bioluminescent imaging mice were intraperitoneally injected with 50 mg/kg D-Luciferin (Goldbio, St. Louis, Mo.), and after 10 min. analyzed using an IVIS® Spectrum system (Caliper LifeSciences, Waltham, Mass.). Quantification was performed using Living Image software (Caliper LifeSciences) and standardized rectangular region of interests covering the mouse trunk and extremities. […]

[3] = system: primary MLL-rearranged pediatric leukemias; assay: Pediatric primary leukemia sample analysis (WST-1, 72 h); assay type: cell-based, human; conditions: 3/3 tested primary MLL-rearranged pediatric leukemias
Source text: Diagnostic bone marrow samples were collected under institutional review board-approved protocols from newly diagnosed children with acute leukemia. Informed consent was obtained in accordance with the Helsinki protocol. At the time of collection, primary leukemic cells were enriched by density centrifugation using Ficoll-Paque PLUS (GE Healthcare, Piscataway, N.J.) and subsequently stored in liquid nitrogen. Vials of cryopreserved cells were thawed, resuspended in media, and live leukemic cells were enriched by density centrifugation. Cells were maintained in supplemented media with 20% fetal bovine serum. All leukemia cell cultures were incubated at 37° C. in 5% CO2.
WST-1 assays were performed in triplicate.

[4] = Tolerability and normal hematopoiesis in healthy mice after 20 days of JQ1; assay type: in vivo, C57BL/6 mice
Source text: Peripheral blood was collected by submandibular bleeding and analyzed using a Hemavet 950 analyzer (Drew Scientific). Values represent average values of 3 replicate mice; error bars indicate s.e.m.
Representative images are shown.
FIG. 17B includes graphs showing the percentage of total bone marrow cells staining for the indicated antibodies. (n=3). Error bars indicate s.e.m.
Paraffin embedded sections were stained with hematoxylin & eosin (H&E). Photographs were taken on a Nikon Eclipse 80i microscope with a Nikon Digital Sight camera using NIS-Elements F2.30 software at a resolution of 2560×1920. Using Adobe Photoshop CS2, images were re-sized and set at a resolution of 300 pixels/inch, autocontrast was applied, and unsharp mask was used to improve image clarity.

AML lines = assay: BrdU cell cycle analysis and apoptosis measurement in AML lines; assay type: cell-based; conditions: all tested AML lines
Description: BrdU incorporation assays were performed according to the manufacturer's protocol (BD, APC BrdU Flow Kit, #552598), where cells were pulsed with BrdU for 30 min. Cells were co-stained with 7-AAD or DAPI for DNA content measurement. For all conditional shRNA experiments, the analysis was gated on shRNA+/dsRed+ cell populations. Annexin V staining for apoptosis was performed according to manufacturer's protocol (BD Biosciences, APC Annexin V, #550475). In FIG. 4e, Annexin V gating was performed on live cells (FSC/SCC) and dsRed+/shRNA+ population, to ensure a clear readout of shRNA effects. […] All analyses were performed using Flowjo software.

AML cell lines = assay: cells; conditions: Homo sapiens, 72 h, read-out: IC50, growth-suppressive activity (proliferation rate)
Description: (§2) Proliferation assays were performed by counting the increase in viable cell number over seventy-two hours. Dead cells were excluded by incubating with propidium iodide (PI). Cell concentration measurements were performed on a Guava Easycyte (Millipore, Billerica, Mass.), gating only viable cells using forward/side scatter/PI-cells. Proliferation rate was calculated using the equation: ln(cell concentration72 h/cell concentration0 h)/72. Relative proliferation rate was calculated by normalizing to rate of DMSO-treated cells.

Brd4 = Brd4 (Mus musculus, UniProt Q9ESU6); conditions: MLL-AF9/Nras^G12D leukemia cells
Description: ChIP assays were performed exactly as described (Filippakopoulos et al.). […] All results were quantified by qPCR performed using SYBR green (ABI) on an ABI 7900HT. Each IP signal was referenced to an input standard curve dilution series (IP/Input) to normalize for differences in starting cell number and for primer amplification efficiency.

Myc [5] = assay: Myc RT-qPCR and Western blot in leukemia cells; assay type: cell-based, mouse
Description: FIG. 20D includes a graph showing RT-qPCR results. […] FIG. 20E includes a graph showing ChIP-qPCR results. […] TSS=transcription start site. […] (n=3). […] Representative images taken at 40× objective are shown. All error bars shown represent s.e.m.
For Brd4 Western blots, 30 μg of whole cell lysate RIPA extract (25 mM Tris pH7.6, 150 mM NaCl, 1% NP-40, 1% Sodium deoxycholate, 0.1% SDS) was loaded into each lane. For Myc Western blots, cells were lysed directly in Laemmli buffer. About 50,000 cell equivalents were loaded in each lane. Protein extracts were resolved by SDS-PAGE electrophoresis and transferred to nitrocellulose for blotting.
(§1) RNA was prepared using Trizol® reagent (Invitrogen, Carlsbad, Calif.). cDNA synthesis was performed using gScript™ cDNA SuperMix (Quanta Biosciences, Gaithersburg, Md., #101414-106). Quantitative PCR (qPCR) analysis was performed on an ABI™ 7900HT with Sybr green (ABI, Carlsbad, Calif., #4364344). All signals were quantified using the delta-Ct method. All signals were normalized to the levels of GAPDH.

primary AMLs = assay: cells; conditions: Homo sapiens, read-out: IC50, growth-suppressive activity
Description: Primary leukemic cells were obtained from peripheral blood (PB) or bone marrow (BM) aspirate samples of 12 (untreated) patients with AML at diagnosis (n=10) or at relapse (n=2). […] Mononuclear cells (MNC) were prepared using Ficoll and stored in liquid nitrogen until used. […] HL60 and MOLM13 cell lines were included as controls (German Collection of Microorganisms and Cell Cultures, DSMZ, Braunschweig, Germany).
Filters were air-dried, and the bound radioactivity was measured in a β-counter (Top-Count NXT, Packard Bioscience). All experiments were performed in triplicates.

Hoxa7, Hoxa9, Meis1 = assay: RT-qPCR of direct MLL-AF9 target genes; assay type: cell-based, mouse; conditions: JQ1 treatment of leukemia cells
Source text: FIGS. 30A-30C show the broadly overlapping transcriptional effects elicited upon suppressing Brd4, Myb, and MLL-AF9 with downregulation of Myc upon suppressing any of the three factors. FIG. 30A includes GSEA plots evaluating transcriptional signatures downstream of MLL-AF9 and Myb. […] The 500 gene cutoff corresponds to a Log2 fold-change of −1.17 for Myb and −1.77 for MLL-AF9. FIG. 30B includes a heat map representation of Myc expression in the indicated microarray replicates. Log2 fold-change and adj.P.Val were calculated using Limma algorithm, implemented using Bioconductor. FIG. 30C includes a graph showing RT-qPCR results. […] Error bars represent s.e.m.
as §1

[6] = system: mouse MLL-fusion leukemia cells; assay: Proliferation assay of mouse leukemia cells versus fibroblasts and G1E; assay type: cell-based; conditions: as compared to fibroblasts and G1E
Description: as §2

[7] = system: non-AML leukemia and solid tumor cell lines; assay: Proliferation assay of non-AML leukemia and solid tumor cell lines; assay type: cell-based, human; conditions: other tested non-AML leukemia and solid tumor cell lines
Description: as §2

[8] = system: AML1-ETO9a/Nras^G12D/p53^−/− AML; assay: AML1-ETO9a/NrasG12D/p53-/- AML mouse model, JQ1 treatment; assay type: in vivo, mice; conditions: 50 mg/kg/d, treatment started after disease onset
Source text: FIG. 14A is a schematic showing the experimental strategy. p53^−/− HSPCs were cotransduced with AML1-ETO9a and Luciferase-IRES-NrasG12D constructs, followed by transplantation of cells into a sublethally irradiated recipient mouse. With high-penetrance, mice succumb to AML as has been described previously (Dick, J. E., Blood 2008; 112:4793-807). Splenic leukemia material derived from moribund mice was transplanted into secondary recipient animals. […] FIG. 14B includes bioluminescent images of leukemic mice at indicated timepoints. […] Shown are mean values of 8 mice in each treatment group, error bars represent s.e.m, p-values were calculated using a two-tailed Student's paired t-test.

[9] = system: MLL-AF9/Nras^G12D leukemia cells; assay: May-Grunwald/Giemsa cytospin morphology of leukemia cells; assay type: cell-based, mouse; conditions: 100 nM JQ1, 2 days
Description: 50,000 cells were resuspend in 100 μl FACS buffer (5% FBS, 0.05% NaN3 in PBS) cytospun onto glass slides using Shandon Cytospin 2 Centrifuge at 500 rpm for 5 min. May-Grunwald (Sigma-Aldrich, #019K4368) and Giemsa (Sigma-Aldrich, #010M4338) stainings were performed according to manufacturer's protocols. Images were collected using a Zeiss Observer Microscope with a 40× objective.

Myc [10] = assay: Myc levels in MEF or G1E cells; assay type: cell-based, mouse
Description: as §1

[11] = daily injections of JQ1 50 mg/kg vs vehicle

Cc1sc2c(c1C)C(c1ccc(Cl)cc1)=N[C@@H](CC(=O)OC(C)(C)C)c1nnc(C)n1-2 [(+)-JQ1, (S)-tert-Butyl 2-(4-(4-chlorophenyl)-2,3,9-trimethyl-6H-thieno[3,2-f][1,2,4]triazolo[4,3-a][1,4]diazepin-6-yl)acetate]
time with plasma concentration above the biologically active concentration observed in vitro (100 nM) ([1]; 50 mg/kg intraperitoneal, by extrapolation): more than 10 hours
Cmax ([1]; mouse, plasma, ip, single intraperitoneal injection 50 mg/kg, adult C1 male mice, read-out: peak plasma concentration (Cmax)): > 20 µM
AUC ([1]; mouse, plasma, ip, single intraperitoneal injection 50 mg/kg, adult C1 male mice, read-out: total drug exposure (AUC)): > 20000 ng·h/mL

Cc1sc2c(c1C)C(c1ccc(Cl)cc1)=NC(CC(=O)OC(C)(C)C)c1nnc(C)n1-2 (racemic) [JQ1, tert-Butyl 2-(4-(4-chlorophenyl)-2,3,9-trimethyl-6H-thieno[3,2-f][1,2,4]triazolo[4,3-a][1,4]diazepin-6-yl)acetate]
disease progression (bioluminescent imaging) [2, 11]: marked delay in disease progression
survival [2, 11]: significantly extended survival
activity in established disease ([2]; established MLL-AF9/NrasG12D leukemia, 50 or 100 mg/kg/d): single-agent activity in the setting of established disease
half-life ([1]; in rodents): about one
sensitivity to JQ1 [3]: highly sensitive
impact on normal hematopoiesis ([4]; 50 or 100 mg/kg/d intraperitoneal for 20 days): little if any impact on normal hematopoiesis; also recorded: minimal impact on normal hematopoiesis
H&E histopathology of sternal bone marrow ([4]; daily intraperitoneal 50 mg/kg or 100 mg/kg for 20 days): normal cellularity and normal mixed hematopoiesis
tolerability ([4]; mice): well-tolerated
cell-cycle arrest and apoptosis (AML lines): universally triggered cell-cycle arrest and apoptosis
IC50 (AML cell lines): < 500 nM
focal Brd4 occupancy ~2 kilobases upstream of the Myc promoter (Brd4): eliminated
time to downregulation of Myc mRNA levels (Myc [5]; 250 nM JQ1, MLL-AF9/Nras^G12D leukemia cells): ≤ 60 min
Myc mRNA and protein levels (Myc [5]; mouse MLL-AF9/Nras^G12D leukemia cells): dramatic reduction in Myc mRNA levels and Myc protein levels
IC50 (primary AMLs): < 500 nM
expression of Hoxa7, Hoxa9, or Meis1 (Hoxa7, Hoxa9, Meis1): does not influence expression
proliferation sensitivity [6]: strikingly sensitive to sub-micromolar JQ1 concentrations
sensitivity to the compound [7]: minimal sensitivity
activity in established disease [8]: single-agent anti-leukemia activity
cell morphology (differentiation) [9]: macrophage-like appearance
effect on Myc levels (Myc [10]): minimal effects
